What was measured:
Assay type in all cases: in vivo
[1] = system: Echinochloa crus-galli (ECHCG); experiment: B. Herbicidal post-emergence efficacy, ECHCG; conditions: 1280 g/ha, rated visually after about 3 weeks
Procedure: (§1) Seeds of mono- and dicotyledonous weed plants were placed in plastic pots in sandy loam soil (doubly sown with in each case one species of mono- or dicotyledonous weed plants per pot), covered with soil and cultivated in a greenhouse under controlled growth conditions. 2 to 3 weeks after sowing, the test plants were treated at the one-leaf stage. The compounds of the invention, formulated in the form of wettable powders (WP) or as emulsion concentrates (EC), were applied onto the green parts of the plants as aqueous suspension or emulsion with addition of 0.5% additive at a water application rate of 600 liters per hectare (converted). After the test plants had been kept in the greenhouse under optimum growth conditions for about 3 weeks, the activity of the preparations was rated visually in comparison to untreated controls.
(§2) For example, • 100% efficacy=plants have died, • 0% efficacy=like untreated control plants
(§3) Tables B1a to B12c below show the effects of selected inventive compounds of the general formula (I) according to table 1 on various harmful plants at an application rate corresponding to 1280 g/ha or less, which were obtained by the experimental procedure mentioned above.

[2] = system: Digitaria sanguinalis (DIGSA); experiment: A. Herbicidal pre-emergence efficacy, DIGSA; conditions: scored visually after about 3 weeks vs untreated controls
Description: (§4) Seeds of mono- and dicotyledonous weed plants were placed in plastic pots in sandy loam soil (doubly sown with one species each of mono- or dicotyledonous weed plants per pot) and covered with soil. The compounds of the invention, formulated in the form of wettable powders (WP) or as emulsion concentrates (EC), were then applied onto the surface of the covering soil as aqueous suspension or emulsion with addition of 0.5% additive at a water application rate of 600 liters per hectare (converted). After the treatment, the pots were placed in a greenhouse and kept under good growth conditions for the test plants. After about 3 weeks, the efficacy of the preparations was scored visually in comparison with untreated controls as percentages.
(§5) For example, • 100% efficacy=plants have died, • 0% efficacy=like untreated control plants.
(§6) Tables A1a to A12c below show the effects of selected compounds of the general formula (I) according to table 1 on various harmful plants at an application rate corresponding to 1280 g/ha or less, which were obtained by the experimental procedure mentioned above.

Poa annua (POAAN) [3] = experiment: A. Herbicidal pre-emergence efficacy, POAAN
Description: as §4, §5, §6

Poa annua (POAAN) [4] = experiment: B. Herbicidal post-emergence efficacy, POAAN
Procedure: as §1, §2, §3

Lolium rigidum (LOLRI) = experiment: A. Herbicidal pre-emergence efficacy, LOLRI; conditions: dosage 1280 g/ha
Description: as §4, §5, §6

Setaria viridis (SETVI) [5] = experiment: A. Herbicidal pre-emergence efficacy, SETVI
Description: as §4, §5, §6

[6] = system: Matricaria inodora (MATIN); experiment: A. Herbicidal pre-emergence efficacy, MATIN
Description: as §4, §5, §6

[7] = system: Amaranthus retroflexus (AMARE); experiment: B. Herbicidal post-emergence efficacy, AMARE
Procedure: as §1, §2, §3

[8] = system: Amaranthus retroflexus (AMARE); experiment: A. Herbicidal pre-emergence efficacy, AMARE
Description: as §4, §5, §6

Kochia scoparia (KCHSC) [9] = experiment: A. Herbicidal pre-emergence efficacy, KCHSC; conditions: pre-emergence
Description: as §4, §5, §6

Veronica persica (VERPE) [10] = experiment: B. Herbicidal post-emergence efficacy, VERPE
Procedure: as §1, §2, §3

Veronica persica (VERPE) [11] = experiment: A. Herbicidal pre-emergence efficacy, VERPE
Description: as §4, §5, §6

Stellaria media (STEME) [12] = experiment: B. Herbicidal post-emergence efficacy, STEME
Procedure: as §1, §2, §3

[13] = system: Abutilon theophrasti (ABUTH); experiment: B. Herbicidal post-emergence efficacy, ABUTH; conditions: rated visually after about 3 weeks
Procedure: as §1, §2, §3

[14] = system: Echinochloa crus-galli (ECHCG); experiment: A. Herbicidal pre-emergence efficacy, ECHCG; conditions: 1280 g/ha; scored visually after about 3 weeks vs untreated controls
Description: as §4, §5, §6

Kochia scoparia (KCHSC) [15] = experiment: B. Herbicidal post-emergence efficacy, KCHSC; conditions: for Post-emergence efficacy against KCHSC: 1280 g/ha; for Post-emergence efficacy against KCHSC in %: rated visually after about 3 weeks
Procedure: as §1, §2, §3

Stellaria media (STEME) [16] = experiment: A. Herbicidal pre-emergence efficacy, STEME
Description: as §4, §5, §6

[17] = system: Abutilon theophrasti (ABUTH); experiment: A. Herbicidal pre-emergence efficacy, ABUTH; conditions: 1280 g/ha; scored visually after about 3 weeks vs untreated controls
Description: as §4, §5, §6

[18] = system: Digitaria sanguinalis (DIGSA); experiment: B. Herbicidal post-emergence efficacy, DIGSA; conditions: rated visually after about 3 weeks
Procedure: as §1, §2, §3

Setaria viridis (SETVI) [19] = experiment: B. Herbicidal post-emergence efficacy, SETVI; conditions: 1280 g/ha
Procedure: as §1, §2, §3

SMILES | Post-emergence efficacy against ECHCG in % [1] [%] | Pre-emergence efficacy against DIGSA ([2]; 320 g/ha) [%] | Pre-emergence efficacy against DIGSA ([2]; 1280 g/ha) [%] | Pre-emergence efficacy against POAAN (Poa annua (POAAN) [3]; dosage 1280 g/ha) [%] | Pre-emergence efficacy against SETVI (Setaria viridis (SETVI) [5]; dosage 320 g/ha) [%] | Pre-emergence efficacy against SETVI (Setaria viridis (SETVI) [5]; dosage 1280 g/ha) [%] | Post-emergence efficacy against AMARE ([7]; 80 g/ha) [%] | Post-emergence efficacy against AMARE ([7]; 320 g/ha) [%] | Post-emergence efficacy against AMARE ([7]; 1280 g/ha) [%] | Pre-emergence efficacy against AMARE in % ([8]; 80 g/ha) [%] | Pre-emergence efficacy against AMARE in % ([8]; 320 g/ha) [%] | Pre-emergence efficacy against AMARE in % ([8]; 1280 g/ha) [%] | Pre-emergence efficacy against KCHSC (Kochia scoparia (KCHSC) [9]; dosage 1280 g/ha) [%] | Post-emergence efficacy against VERPE (Veronica persica (VERPE) [10]; 1280 g/ha) [%] | Pre-emergence efficacy against VERPE in % (Veronica persica (VERPE) [11]; 1280 g/ha) [%] | Post-emergence efficacy against STEME (Stellaria media (STEME) [12]; 320 g/ha) [%] | Post-emergence efficacy against STEME (Stellaria media (STEME) [12]; 1280 g/ha) [%] | Post-emergence efficacy against ABUTH in % ([13]; 320 g/ha) [%] | Post-emergence efficacy against ABUTH in % ([13]; 1280 g/ha) [%] | Pre-emergence efficacy against ECHCG [14] [%] | further results
O=S(=O)(CCC1CC1(Cl)Cl)Oc1c(F)cccc1Oc1ncc(Cl)cn1 (stereo not shown) [Example I-51] | 90 | 90 | 100 | 100 | 90 | 90 | 90 | 90 | 90 | 90 | 100 | 100 | 100 | 90 | 100 | 90 | 90 | 90 | 90 | 90 | Post-emergence efficacy against POAAN (Poa annua (POAAN) [4]; 1280 g/ha): 90%; Pre-emergence efficacy against LOLRI (Lolium rigidum (LOLRI)): 90%; Pre-emergence efficacy against MATIN ([6]; 320 g/ha, scored visually after about 3 weeks vs untreated controls): 90%; Pre-emergence efficacy against MATIN ([6]; pre-emergence, dosage 1280 g/ha): 90%; Post-emergence efficacy against STEME (Stellaria media (STEME) [12]; 80 g/ha): 90%; Post-emergence efficacy against KCHSC (Kochia scoparia (KCHSC) [15]): 90%; Pre-emergence efficacy against STEME (Stellaria media (STEME) [16]; dosage 320 g/ha): 90%; Pre-emergence efficacy against STEME (Stellaria media (STEME) [16]; dosage 1280 g/ha): 100%
O=S(=O)(CC1CC(F)(F)C1)Oc1c(Br)cccc1Oc1ncc(Cl)cn1 [Example I-75] | 90 | 90 | 100 | 100 | 90 | 100 | 100 | 100 | 100 | 90 | 90 | 100 | 100 | 100 | 100 | 100 | 100 | 90 | 100 | 100 | Pre-emergence efficacy against POAAN (Poa annua (POAAN) [3]; dosage 320 g/ha): 100%; Post-emergence efficacy against POAAN (Poa annua (POAAN) [4]; 320 g/ha): 90%; Post-emergence efficacy against POAAN (Poa annua (POAAN) [4]; 1280 g/ha): 90%; Pre-emergence efficacy against KCHSC (Kochia scoparia (KCHSC) [9]; dosage 320 g/ha): 90%; Pre-emergence efficacy against ABUTH [17]: 100%; Post-emergence efficacy against VERPE (Veronica persica (VERPE) [10]; 80 g/ha): 100%; Post-emergence efficacy against VERPE (Veronica persica (VERPE) [10]; 320 g/ha): 100%; Pre-emergence efficacy against VERPE in % (Veronica persica (VERPE) [11]; 320 g/ha): 90%; Post-emergence efficacy against ABUTH in % ([13]; 80 g/ha): 90%; Post-emergence efficacy against DIGSA in % ([18]; 1280 g/ha): 90%; Post-emergence efficacy against KCHSC in % (Kochia scoparia (KCHSC) [15]; 80 g/ha): 90%; Post-emergence efficacy against KCHSC in % (Kochia scoparia (KCHSC) [15]; 320 g/ha): 100%; Post-emergence efficacy against KCHSC (Kochia scoparia (KCHSC) [15]): 100%; Pre-emergence efficacy against STEME (Stellaria media (STEME) [16]; dosage 320 g/ha): 100%; Pre-emergence efficacy against STEME (Stellaria media (STEME) [16]; dosage 1280 g/ha): 100%
N#Cc1cccc(Oc2ncc(Cl)cn2)c1OS(=O)(=O)CC1CC(F)(F)C1 [Example I-79] | 100 | 100 | 100 | 90 | 90 | 100 | 90 | 100 | 100 | 90 | 100 | 100 | 100 | 100 | 100 | 100 | 100 | 90 | 100 | 90 | Pre-emergence efficacy against KCHSC (Kochia scoparia (KCHSC) [9]; dosage 320 g/ha): 90%; Pre-emergence efficacy against ABUTH [17]: 90%; Post-emergence efficacy against VERPE (Veronica persica (VERPE) [10]; 80 g/ha): 100%; Post-emergence efficacy against VERPE (Veronica persica (VERPE) [10]; 320 g/ha): 100%; Pre-emergence efficacy against VERPE in % (Veronica persica (VERPE) [11]; 320 g/ha): 100%; Post-emergence efficacy against STEME (Stellaria media (STEME) [12]; 80 g/ha): 90%; Post-emergence efficacy against DIGSA in % ([18]; 320 g/ha): 90%; Post-emergence efficacy against DIGSA in % ([18]; 1280 g/ha): 100%; Post-emergence efficacy against KCHSC in % (Kochia scoparia (KCHSC) [15]; 80 g/ha): 90%; Post-emergence efficacy against KCHSC in % (Kochia scoparia (KCHSC) [15]; 320 g/ha): 100%; Post-emergence efficacy against KCHSC (Kochia scoparia (KCHSC) [15]): 100%; Post-emergence efficacy against SETVI (Setaria viridis (SETVI) [19]): 90%; Pre-emergence efficacy against STEME (Stellaria media (STEME) [16]; dosage 320 g/ha): 90%; Pre-emergence efficacy against STEME (Stellaria media (STEME) [16]; dosage 1280 g/ha): 100%
